{
  "source": "patent US12551536B2",
  "about": "“Semaglutide in medical therapy” (Novo Nordisk A/S, priority 2017, dated 2026)",
  "key": {"[1]": {"assay": "26-week clinical trial in adult patients with T2D: gastrointestinal adverse events incl. nausea", "assay_type": "in vivo, human", "details": "on-treatment", "experimental": "A 26-week, randomized, double-blind clinical trial was carried out with adult patients with T2D, HbA1c 7.0-10.0% (53-86 mmol/mol), and body mass index 24.0-40.0 kg/m^2 who were treated with diet and exercise±metformin. […] The primary endpoint was change in HbA1c from baseline to week 26. Key exclusion criteria were a history of chronic or idiopathic acute pancreatitis and moderate-to-severe renal impairment (estimated glomerular filtration rate <60 mL/min/1.73 m^2).\nTrial drug administration: Following a 2-week screening period, patients received trial medication for 26 weeks, followed by a 7-week follow-up period. […] The trial was double blinded within (but not between) each dose level of semaglutide, liraglutide and placebo, as treatment was volume matched."}, "[2]": {"assay": "52-week clinical trial in obese subjects without diabetes mellitus: gastrointestinal adverse events", "assay_type": "in vivo, human", "details": "Lira 3.0 mg once daily s.c., on-treatment", "experimental": "This trial was designed as a 52-week, randomised, double-blind, placebo-controlled, sixteen-armed, parallel group, multi-centre, multinational trial comparing once-daily subcutaneous administration of semaglutide in five different doses (ranging from 0.05 mg/day to 0.4 mg/day) with placebo in obese subjects without diabetes mellitus. […] The trial was double-blinded between active and placebo treatment. To ensure a sufficiently large sample of men, no more than 70% of the trial population was allowed to be women and the randomisation was stratified according to sex. Subjects were randomised in a balanced manner (6:1 active:placebo).\nThe primary endpoint was relative change from baseline in body weight (%) at 52 weeks. Key secondary endpoints included proportion of subjects with weight loss of ≥5% or ≥10% of baseline body weight at 52 weeks as well as change in body weight from baseline to 52 weeks. Supportive secondary safety endpoints also included gastrointestinal (GI) adverse events (i.e. nausea, vomiting, diarrhoea and constipation). During each site visit the individual subject was asked via open questions if they had experienced any medical problems since the last visit. All medical problems either observed by the site staff or the subject was reported as an adverse event and evaluated for severity and causality by the investigator. For this trial the subjects had site visits every 2 weeks for the first 20 weeks of the trial and afterwards site visits was performed every 4 weeks.\nSubjects in all treatment arms including placebo received nutritional counselling and a calorie-reduced diet by a dietician or equivalent qualified delegate as well as physical activity counselling by a qualified person on a monthly basis beginning at the randomisation visit. The trial population consisted of a total of 957 subjects were randomised. A total of 777 subjects (81.2%) completed 52 weeks of treatment; 180 (18.8%) discontinued treatment prematurely with no obvious dose-dependent trend. Key inclusion criteria for this trial were: Male or female, age ≥18 years at the time of signing inform consent; body mass index (BMI)≥30.0 kg/m2 at the screening visit; and at least one unsuccessful weight loss attempt per investigator judgement. Key exclusion criteria for this trial were: A HbA1c≥6.5% at screening or diagnosed with type 1 or type 2 diabetes mellitus; Treatment with glucose lowering agent(s) within 90 days before screening; Screening calcitonin ≥50 ng/L (pg/mL); Personal or family history of medullary thyroid carcinoma or multiple endocrine neoplasia syndrome type 2; History of pancreatitis (acute or chronic); Obesity induced by endocrine disorders (e.g. Cushing Syndrome); Treatment with any medication within 90 days before screening that based on investigator's judgement may cause significant weight change; Previous surgical treatment for obesity (liposuction and/or abdominoplasty performed >1 year before screening is allowed); History of major depressive disorder within 2 years before randomisation; Any lifetime history of a suicidal attempt; and Female who is pregnant, breast-feeding or intends to become pregnant or is of childbearing potential and not using an adequate contraceptive method (adequate contraceptive measures as required by local regulation or practice)."}, "[3]": {"details": "Lira 0.3 mg once daily s.c., N 64"}, "[4]": {"details": "Lira 0.6 mg once daily s.c., N 64"}, "[5]": {"details": "Lira 1.2 mg once daily s.c., N 64"}, "[6]": {"details": "Lira 1.8 mg once daily s.c., N 65"}},
  "data": [
    {"smiles": "CCCCCCCCCCCCCCCC(=O)N[C@@H](CCC(=O)NCCCC[C@H](NC(=O)[C@H](C)NC(=O)[C@H](C)NC(=O)[C@H](CCC(N)=O)NC(=O)CNC(=O)[C@H](CCC(=O)O)NC(=O)[C@H](CC(C)C)NC(=O)[C@H](Cc1ccc(O)cc1)NC(=O)[C@H](CO)NC(=O)[C@H](CO)NC(=O)[C@@H](NC(=O)[C@H](CC(=O)O)NC(=O)[C@H](CO)NC(=O)[C@@H](NC(=O)[C@H](Cc1ccccc1)NC(=O)[C@@H](NC(=O)CNC(=O)[C@H](CCC(=O)O)NC(=O)[C@H](C)NC(=O)[C@@H](N)Cc1cnc[nH]1)[C@@H](C)O)[C@@H](C)O)C(C)C)C(=O)N[C@@H](CCC(=O)O)C(=O)N[C@@H](Cc1ccccc1)C(=O)N[C@H](C(=O)N[C@@H](C)C(=O)N[C@@H](Cc1c[nH]c2ccccc12)C(=O)N[C@@H](CC(C)C)C(=O)N[C@H](C(=O)N[C@@H](CCCNC(=N)N)C(=O)NCC(=O)N[C@@H](CCCNC(=N)N)C(=O)NCC(=O)O)C(C)C)[C@@H](C)CC)C(=O)O", "note": "[Lira, liraglutide, reference compound]", "values": [
      {"measurement": "Gastrointestinal adverse events, % (percentage of patients experiencing at least one event)", "setting": "[1]; Lira 0.3 mg once daily s.c.", "result": 21.9, "unit": "%"},
      {"measurement": "Gastrointestinal adverse events, E (number of events)", "setting": "[1]; Lira 0.3 mg once daily s.c.", "result": 25},
      {"measurement": "Nausea, % (percentage of patients experiencing at least one event)", "setting": "[1]; Lira 0.3 mg once daily s.c.", "result": 9.4, "unit": "%"},
      {"measurement": "Nausea, E (number of events)", "setting": "[1]; Lira 0.3 mg once daily s.c.", "result": 7},
      {"measurement": "Gastrointestinal adverse events, Ne (number of patients experiencing at least one event)", "setting": "[1]; [3]", "result": 14},
      {"measurement": "Nausea, Ne (number of patients experiencing at least one event)", "setting": "[1]; [3]", "result": 6},
      {"measurement": "Gastrointestinal adverse events, % (percentage of patients experiencing at least one event)", "setting": "[1]; Lira 0.6 mg once daily s.c.", "result": 29.7, "unit": "%"},
      {"measurement": "Gastrointestinal adverse events, E (number of events)", "setting": "[1]; Lira 0.6 mg once daily s.c.", "result": 62},
      {"measurement": "Nausea, % (percentage of patients experiencing at least one event)", "setting": "[1]; Lira 0.6 mg once daily s.c.", "result": 10.9, "unit": "%"},
      {"measurement": "Nausea, E (number of events)", "setting": "[1]; Lira 0.6 mg once daily s.c.", "result": 11},
      {"measurement": "Gastrointestinal adverse events, Ne (number of patients experiencing at least one event)", "setting": "[1]; [4]", "result": 19},
      {"measurement": "Nausea, Ne (number of patients experiencing at least one event)", "setting": "[1]; [4]", "result": 7},
      {"measurement": "Gastrointestinal adverse events, % (percentage of patients experiencing at least one event)", "setting": "[1]; Lira 1.2 mg once daily s.c.", "result": 31.3, "unit": "%"},
      {"measurement": "Gastrointestinal adverse events, E (number of events)", "setting": "[1]; Lira 1.2 mg once daily s.c.", "result": 40},
      {"measurement": "Nausea, % (percentage of patients experiencing at least one event)", "setting": "[1]; Lira 1.2 mg once daily s.c.", "result": 10.9, "unit": "%"},
      {"measurement": "Nausea, E (number of events)", "setting": "[1]; Lira 1.2 mg once daily s.c.", "result": 11},
      {"measurement": "Gastrointestinal adverse events, Ne (number of patients experiencing at least one event)", "setting": "[1]; [5]", "result": 20},
      {"measurement": "Nausea, Ne (number of patients experiencing at least one event)", "setting": "[1]; [5]", "result": 7},
      {"measurement": "Gastrointestinal adverse events, % (percentage of patients experiencing at least one event)", "setting": "[1]; Lira 1.8 mg once daily s.c.", "result": 41.5, "unit": "%"},
      {"measurement": "Gastrointestinal adverse events, E (number of events)", "setting": "[1]; Lira 1.8 mg once daily s.c.", "result": 81},
      {"measurement": "Nausea, % (percentage of patients experiencing at least one event)", "setting": "[1]; Lira 1.8 mg once daily s.c.", "result": 20.0, "unit": "%"},
      {"measurement": "Nausea, E (number of events)", "setting": "[1]; Lira 1.8 mg once daily s.c.", "result": 18},
      {"measurement": "Gastrointestinal adverse events, Ne (number of patients experiencing at least one event)", "setting": "[1]; [6]", "result": 27},
      {"measurement": "Nausea, Ne (number of patients experiencing at least one event)", "setting": "[1]; [6]", "result": 13},
      {"measurement": "Gastrointestinal adverse events, Observed data, % (percentage of subjects with at least one event)", "setting": "[2]", "result": 74.8, "unit": "%"},
      {"measurement": "Nausea, % (percentage of subjects experiencing at least one event)", "setting": "[2]; observed data", "result": 44.7, "unit": "%"},
      {"measurement": "Nausea, E (number of events)", "setting": "[2]; observed data", "result": 89},
      {"measurement": "Nausea, Ne (number of subjects experiencing at least one event)", "setting": "[2]; observed data, N 103", "result": 46},
      {"measurement": "Gastrointestinal adverse events, Observed data, Ne (number of subjects experiencing at least one event)", "setting": "[2]; N 103", "result": 77}
    ]}
  ]
}
